Source: patent publication US6545131B1, “Tissue specific prodrug” (priority 1997, dated 2003)
Starred links: 1 amine or outer side, 2 acyl side, 3 side chain; linkers in the order of their positions; H or OH if unused. Residues, ends and D or L forms follow the SMILES beside them. *: point of attachment. AMC = Cc1cc(=O)oc2cc(N*)ccc12; Morpholide = C1CN(*)CCO1; CO = O=C([*:1])[*:2]

How the values were obtained:
[1] = molecular target: T1, PSA (prostate specific antigen) (Homo sapiens, UniProt P07288); assay: Cleavage of AMC-labelled peptide substrates by purified PSA (fluorescence of released AMC; Lineweaver-Burke kinetics); type: biochemical; conditions: for picomoles of peptide cleaved/min/200 picomoles protease: PSA: pH 7.8, SKLQ, KLQ, LQ in 1.4% acetonitrile/buffer, Q-AMC in 0.2% formic acid/buffer; for Kcat / Km: PSA substrate, PSA assay buffer pH 7.8, Lineweaver-Burke
T1 construct: PSA was purified from human seminal plasma; from tissue; host or cells: human seminal plasma
T1 sequence (P07288 25-261): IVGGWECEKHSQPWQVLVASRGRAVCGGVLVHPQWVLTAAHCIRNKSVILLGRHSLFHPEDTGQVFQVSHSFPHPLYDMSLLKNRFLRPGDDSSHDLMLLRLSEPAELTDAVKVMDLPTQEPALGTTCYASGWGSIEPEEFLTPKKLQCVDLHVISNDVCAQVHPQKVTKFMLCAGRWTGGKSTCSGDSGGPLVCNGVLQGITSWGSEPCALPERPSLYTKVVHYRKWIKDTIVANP
Protocol: (§1) The peptides discussed herein were custom synthesized by Enzyme Systems Products (Dublin, Calif.) and, after HPLC separation and purification to >95%, the molecular weights were confirmed by mass spectroscopy. All peptides had morpholinocarbonyl protecting the amino terminus and 7-amino-4-methylcoumarin (AMC) attached via an amide bond to the carboxyl group of the carboxy-terminal amino acid. Peptides were first dissolved in distilled water (5 mM) and then diluted into PSA assay buffer (50 mM Tris/0.1M NaCl pH 7.8). The glutamine-AMC peptide had the amino terminus and side chain amine unprotected and was obtained from Bachem (Torrance, Calif.).
(§2) PSA was purified from human seminal plasma as described in Christensson, et al. Eur. J. Biochem. 194:755-765, (1990). Plasmin, urokinase, tissue plasminogen activator (TPA), human plasma and porcine pancreatic kallikrein and a 1-antichymotrypsin were obtained from Calbiochem (San Diego, Calif.). All other proteases were obtained from Sigma Chemical Co. (St. Louis, Mo.). Mouse serum was obtained from East Acres Biologicals (South Bridge, Mass.). Goat and calf sera were obtained from Gibco BRL (Grand Island, N.Y.). Rat serum was obtained in-house from sacrificed animals. Human serum was obtained from volunteers.
(§3) Cleavage was studied by measuring fluorescence change secondary to AMC release. Fluorescence detection was carried out with a Fluoroskan II 96 well fluorometric plate reader (ICN Biomedicals, Costa Mesa, Calif.), with excitation wavelength 355 nm and emission wavelength 460 nm. Data were collected and analyzed using Deltasoft III software (Biometallics, Princeton, N.J.). All reactions were performed at room temperature by the addition of substrate and proteases into PSA buffer, described below, in a final volume of 200 μL. The results were determined from the initial linear increase of fluorescence and were expressed as the picomoles of AMC released per minute based upon comparison to a standard curve of the fluorescence of known amounts of AMC (i.e., fluorescence was linear form 20 to 300 picomoles of AMC). The data were analyzed by Lineweaver-Burke reciprocal plots to determine the Michaelis-Menten constant (i.e., Km) expressed as the amount of substrate needed to saturate half of the enzyme and the catalytic rate constant (i.e., kcat) expressed as the amount of substrate converted to product per time per amount of enzyme.
(§4) Each assay contains 200 picomoles of the particular protease and 0.2 mM concentration of the particular substrate (i.e., 40,000 picomoles/200 μL of assay volume). The amino acid sequences expressed in one letter amino acid code represent the following amino acid sequences in the three letter amino acid code: EHSSKLQ (Glu-His-Ser-Ser-Lys-Leu-Gln; SEQ ID NO:10), QNKISYQ (Gln-Asn-Lys-Ile-Ser-Tyr-Gln; SEQ ID NO:11), ENKISYQ (Glu-Asn-Lys-Ile-Ser-Tyr-Gln; SEQ ID NO:12), and ATKSKQH (Ala-Thr-Lys-Ser-Lys-Gln-His; SEQ ID NO:13). Determinations listed in the table were carried out with substrates at 0.2 mM concentration in the PSA assay buffer (50 mM Tris/0.1M NaCl pH 7.8). The entry “UD” stands for “undetectable” and means that at most, 0.1 pmole of substrate cleavage per minute per 200 pmole protease took place. Asterisks represent experiments not performed. Abbreviations are as follows: PSA (prostate specific antigen), Chymo (chymotrypsin), Urokin (urokinase), TPA (tissue plasminogen activator), Thromb (thrombin), Kallik (human kallikrein, hK1).
The data in Table 2 are the results of kinetic experiments with the peptide substrates used in Example 1. Experimental details are found in Example 1.
The amino acid sequences expressed in one letter amino acid code represent the following amino acid sequences in the three letter amino acid code: EHSSKLQ (Glu-His-Ser-Ser-Lys-Leu-Gln; SEQ ID NO:10), HSSKLQ (His-Ser-Ser-Lys-Leu-Gln; SEQ ID NO:7), SKLQ (Ser-Lys-Leu-Gln; SEQ ID NO:1), and ATKSKQH (Ala-Thr-Lys-Ser-Lys-Gln-His; SEQ ID NO:13). […]

porcine liver esterase = assay: PSA substrate cleavage by purified intracellular protease; type: biochemical; conditions: 0.2 mM substrate, pH 7.8; SKLQ, KLQ, LQ in 1.4% acetonitrile/buffer, Q-AMC in 0.2% formic acid/buffer
Protocol: as §3
(§5) A family of peptide substrates based upon the EHSSKLQ (SEQ ID NO:10) sequence was assayed for activity for the intracellular proteases, and the results given in Table 4.
(§6) The amino acid sequences expressed in one letter amino acid code represent the following amino acid sequences in the three letter amino acid code: EHSSKLQ (Glu-His-Ser-Ser-Lys-Leu-Gln; SEQ ID NO:10), The shorter sequences are formed by deleting amino acids from the amino terminal side of the sequence. Determinations listed in the table were carried out with substrates at 0.2 mM concentration in the PSA assay buffer (50 mM Tris/0.1M NaCl pH 7.8), except SKLQ (SEQ ID NO:1), KLQ and LQ, which were carried out in 1.4% acetonitrile/buffer and Q-AMC which was carried out in 0.2% formic acid/buffer, at pH 7.8. The entry “UD” stands for “undetectable” and means that at most, 0.1 pmole of substrate cleavage per minute per 200 pmole protease took place. Asterisks represent experiments not performed. Abbreviations are as follows: PSA (prostate specific antigen), Cath B, C, D (Cathepsins, B, C, D), Esterase (porcine liver esterase).

Cathepsin B = molecular target: T2, Cathepsin B (Homo sapiens, UniProt P07858); assay: as above; type: biochemical; conditions: 0.2 mM substrate, pH 7.8; SKLQ, KLQ, LQ in 1.4% acetonitrile/buffer, Q-AMC in 0.2% formic acid/buffer
T2 construct: purchased Sigma Chemical Co
Protocol: as §3, §5, §6

Cathepsin D = molecular target: T3, Cathepsin D (Homo sapiens, UniProt P07339); assay: as above; type: biochemical; conditions: 0.2 mM substrate, pH 7.8; SKLQ, KLQ, LQ in 1.4% acetonitrile/buffer, Q-AMC in 0.2% formic acid/buffer
T3 construct: purchased Sigma Chemical Co
T3 sequence (P07339 65-412): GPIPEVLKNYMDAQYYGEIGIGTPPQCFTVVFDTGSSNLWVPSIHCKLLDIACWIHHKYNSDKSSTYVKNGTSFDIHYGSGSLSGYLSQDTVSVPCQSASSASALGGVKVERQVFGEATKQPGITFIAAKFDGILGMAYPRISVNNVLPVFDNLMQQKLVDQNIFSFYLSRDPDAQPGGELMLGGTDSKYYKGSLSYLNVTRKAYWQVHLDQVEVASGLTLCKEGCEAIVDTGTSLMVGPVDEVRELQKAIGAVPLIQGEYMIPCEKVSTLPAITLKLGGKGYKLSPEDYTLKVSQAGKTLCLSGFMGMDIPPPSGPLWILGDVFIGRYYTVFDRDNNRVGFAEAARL
Protocol: as §3, §5, §6

Cathepsin C = molecular target: T4, Cathepsin C (Homo sapiens, UniProt P53634); assay: as above; type: biochemical; conditions: 0.2 mM substrate, pH 7.8; SKLQ, KLQ, LQ in 1.4% acetonitrile/buffer, Q-AMC in 0.2% formic acid/buffer
T4 construct: purchased Sigma Chemical Co
T4 sequence (P53634 25-463): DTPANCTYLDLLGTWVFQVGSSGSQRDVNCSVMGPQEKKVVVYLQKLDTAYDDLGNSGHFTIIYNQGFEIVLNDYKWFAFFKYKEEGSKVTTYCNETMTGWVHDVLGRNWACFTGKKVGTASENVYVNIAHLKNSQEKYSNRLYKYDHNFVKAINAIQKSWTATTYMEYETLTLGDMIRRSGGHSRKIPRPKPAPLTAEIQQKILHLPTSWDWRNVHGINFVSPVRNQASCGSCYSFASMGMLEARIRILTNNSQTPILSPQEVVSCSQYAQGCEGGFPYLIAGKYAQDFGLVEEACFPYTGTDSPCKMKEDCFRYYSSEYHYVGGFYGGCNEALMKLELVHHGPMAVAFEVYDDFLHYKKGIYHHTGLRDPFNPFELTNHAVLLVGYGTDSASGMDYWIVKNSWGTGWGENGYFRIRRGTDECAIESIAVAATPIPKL
Protocol: as §3, §5, §6

human kallikrein, hK1 = assay: Peptide-AMC cleavage by purified extracellular protease; type: biochemical; conditions: 0.2 mM substrate, PSA assay buffer pH 7.8
Protocol: as §1, §2, §3, §4

urokinase = molecular target: T5, urokinase (Homo sapiens, UniProt P00749); assay: as above; type: biochemical; conditions: 0.2 mM substrate, PSA assay buffer pH 7.8
T5 construct: purchased Calbiochem
Protocol: as §1, §2, §3, §4

Trypsin = assay: as above; type: biochemical; conditions: 0.2 mM substrate, PSA assay buffer pH 7.8
Protocol: as §1, §2, §3, §4

chymotrypsin = molecular target: T6, chymotrypsin (Bos taurus, UniProt P00766); assay: as above; type: biochemical; conditions: 0.2 mM substrate, PSA assay buffer pH 7.8
T6 construct: purchased Sigma Chemical Co
Protocol: as §1, §2, §3, §4

Plasmin = molecular target: T7, Plasmin (Homo sapiens, UniProt P00747); assay: as above; type: biochemical; conditions: 0.2 mM substrate, PSA assay buffer pH 7.8
T7 construct: purchased Calbiochem
T7 sequence (P00747 581-810 limits assumed, species assumed): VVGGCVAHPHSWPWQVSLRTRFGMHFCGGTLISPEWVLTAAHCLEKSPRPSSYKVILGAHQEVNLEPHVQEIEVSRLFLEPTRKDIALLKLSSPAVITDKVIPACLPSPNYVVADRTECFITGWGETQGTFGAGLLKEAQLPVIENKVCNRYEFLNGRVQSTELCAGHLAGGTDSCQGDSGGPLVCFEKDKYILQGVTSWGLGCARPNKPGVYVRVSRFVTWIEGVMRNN
T7 sequence (P00747 97-580 partner limits assumed, species assumed): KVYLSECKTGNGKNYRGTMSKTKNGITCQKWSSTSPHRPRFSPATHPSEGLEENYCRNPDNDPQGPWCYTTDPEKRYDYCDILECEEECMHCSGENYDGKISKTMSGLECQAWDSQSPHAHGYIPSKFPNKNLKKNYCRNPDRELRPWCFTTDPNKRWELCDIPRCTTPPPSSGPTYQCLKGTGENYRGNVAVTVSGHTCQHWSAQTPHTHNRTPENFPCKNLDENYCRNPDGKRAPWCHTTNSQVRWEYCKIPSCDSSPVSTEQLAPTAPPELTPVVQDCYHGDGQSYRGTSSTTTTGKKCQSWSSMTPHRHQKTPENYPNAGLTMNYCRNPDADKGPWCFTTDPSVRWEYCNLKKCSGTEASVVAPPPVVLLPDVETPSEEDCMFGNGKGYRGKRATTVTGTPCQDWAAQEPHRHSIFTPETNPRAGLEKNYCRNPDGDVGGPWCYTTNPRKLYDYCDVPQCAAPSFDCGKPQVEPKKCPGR
Protocol: as §1, §2, §3, §4

[2] = molecular target: T8, tissue plasminogen activator (TPA) (Homo sapiens, UniProt P00750); assay: as above; type: biochemical; conditions: 0.2 mM substrate, PSA assay buffer pH 7.8
T8 construct: purchased Calbiochem
T8 sequence (P00750 36-562, species assumed): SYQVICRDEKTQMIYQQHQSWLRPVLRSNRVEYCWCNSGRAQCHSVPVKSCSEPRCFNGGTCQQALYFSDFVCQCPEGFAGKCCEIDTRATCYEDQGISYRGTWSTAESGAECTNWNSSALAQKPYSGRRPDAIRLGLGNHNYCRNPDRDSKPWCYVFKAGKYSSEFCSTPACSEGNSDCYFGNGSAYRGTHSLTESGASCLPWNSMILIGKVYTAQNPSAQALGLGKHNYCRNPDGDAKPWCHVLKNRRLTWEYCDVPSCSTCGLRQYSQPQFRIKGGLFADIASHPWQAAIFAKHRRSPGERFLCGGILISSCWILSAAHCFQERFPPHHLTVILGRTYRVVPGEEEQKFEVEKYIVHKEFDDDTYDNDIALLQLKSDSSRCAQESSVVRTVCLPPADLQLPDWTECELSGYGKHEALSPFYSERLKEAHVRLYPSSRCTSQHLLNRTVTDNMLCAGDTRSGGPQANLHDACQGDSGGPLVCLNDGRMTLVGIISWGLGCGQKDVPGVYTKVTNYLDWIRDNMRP
Protocol: as §1, §2, §3, §4

Elastase = assay: as above; type: biochemical; conditions: 0.2 mM substrate, PSA assay buffer pH 7.8
Protocol: as §1, §2, §3, §4

thrombin = molecular target: T9, thrombin (Homo sapiens, UniProt P00734); assay: as above; type: biochemical; conditions: 0.2 mM substrate, PSA assay buffer pH 7.8
T9 construct: purchased Sigma Chemical Co
Protocol: as §1, §2, §3, §4

[3] = Stability of PSA substrates in serum (AMC release); type: in vitro ADME; conditions: 0.2 mM substrate
Excerpt: as §2, §3
Because the prodrug can be given systemically via the blood, it is useful to determine the stability of the substrates in sera from a variety of species. The substrates and experimental details are found as described in Example 1.
The amino acid sequences expressed in one letter amino acid code represent the following amino acid sequences in the three letter amino acid code: EHSSKLQ (Glu-His-Ser-Ser-Lys-Leu-Gln; SEQ ID NO:10), QNKISYQ (Gln-Asn-Lys-Ile-Ser-Tyr-Gln; SEQ ID NO:11), ENKISYQ (Glu-Asn-Lys-Ile-Ser-Tyr-Gln; SEQ ID NO:12) and ATKSKQH (Ala-Thr-Lys-Ser-Lys-Gln-His; SEQ ID NO:13). Determinations listed in the table were carried out with substrates at 0.2 mM concentration in the PSA assay buffer (50 mM Tris/0.1M NaCl pH 7.8). AMC is 7-amino-4-methylcoumarin. The human serum used was 100% for each assay. The entry “UD” stands for “undetectable”, and means that not more than 0.01 picomole of substrate per minute was cleaved.

SMILES: Cc1cc(=O)oc2cc(NC(=O)[C@H](CCC(N)=O)NC(=O)[C@H](CC(C)C)NC(=O)[C@H](CCCCN)NC(=O)[C@H](CO)NC(=O)[C@H](CO)NC(=O)[C@H](Cc3c[nH]cn3)NC(=O)N3CCOCC3)ccc12 [HSSKLQ, His-Ser-Ser-Lys-Leu-Gln] ({Morpholide-CO}-HSSKLQ-{AMC})
- picomoles of peptide cleaved/min/200 picomoles protease: PSA ([1]; 0.2 mM substrate): 62.7 picomoles/min/200 picomoles pr
- Kcat [1]: 0.011 s⁻¹
- Km [1]: 470 µM
- picomoles of peptide cleaved/min/200 picomoles protease: Esterase (porcine liver esterase): UD (at most, 0.1 pmole of substrate cleavage per minute per 200 pmole protease took place)
- picomoles of peptide cleaved/min/200 picomoles protease: Cath B (Cathepsin B): 17.3 picomoles/min/200 picomoles pr
- picomoles of peptide cleaved/min/200 picomoles protease: Cath D (Cathepsin D): 3.8 picomoles/min/200 picomoles pr
- picomoles of peptide cleaved/min/200 picomoles protease: Cath C (Cathepsin C): UD (at most, 0.1 pmole of substrate cleavage per minute per 200 pmole protease took place)

SMILES: CC[C@H](C)[C@H](NC(=O)[C@H](CCCCN)NC(=O)[C@H](CC(N)=O)NC(=O)[C@H](CCC(=O)O)NC(=O)N1CCOCC1)C(=O)N[C@@H](CO)C(=O)N[C@@H](Cc1ccc(O)cc1)C(=O)N[C@@H](CCC(N)=O)C(=O)Nc1ccc2c(C)cc(=O)oc2c1 [ENKISYQ, Glu-Asn-Lys-Ile-Ser-Tyr-Gln] ({Morpholide-CO}-ENKISYQ-{AMC})
- Picomoles of substrate cleaved/minute/200 pmoles of indicated protease: Kallik (human kallikrein, hK1): UD (at most, 0.1 pmole of substrate cleavage per minute per 200 pmole protease took place)
- Picomoles of substrate cleaved/minute/200 pmoles of indicated protease: Urokin (urokinase): UD (at most, 0.1 pmole of substrate cleavage per minute per 200 pmole protease took place)
- Picomoles of substrate cleaved/minute/200 pmoles of indicated protease: Trypsin (Trypsin): 1.8 picomoles/minute/200 pmoles pr
- Picomoles of substrate cleaved/minute/200 pmoles of indicated protease: Chymo (chymotrypsin): 3.6 picomoles/minute/200 pmoles pr
- Picomoles of substrate cleaved/minute/200 pmoles of indicated protease: Plasmin (Plasmin): 0.6 picomoles/minute/200 pmoles pr
- Picomoles of substrate cleaved/minute/200 pmoles of indicated protease: TPA [2]: .04 picomoles/minute/200 pmoles pr
- Picomoles of substrate cleaved/minute/200 pmoles of indicated protease: Elastase (Elastase): 2.6 picomoles/minute/200 pmoles pr
- Picomoles of substrate cleaved/minute/200 pmoles of indicated protease: Thromb (thrombin): 0.3 picomoles/minute/200 pmoles pr
- picomles AMC released/minute: Calf [3]: UD (not more than 0.01 picomole of substrate per minute was cleaved)
- picomles AMC released/minute: Fetal Calf [3]: 9.59 picomoles/minute
- picomles AMC released/minute: Goat [3]: 3.18 picomoles/minute
- picomles AMC released/minute: Mouse [3]: 3.71 picomoles/minute
- picomles AMC released/minute: Rat [3]: 11.2 picomoles/minute
- picomles AMC released/minute: Human ([3]; human serum 100%): 1.27 picomoles/minute
- Picomoles of substrate cleaved/minute/200 pmoles of indicated protease: PSA ([1]; 0.2 mM substrate, PSA assay buffer pH 7.8, room temperature): 14.4 picomoles/minute/200 pmoles pr

SMILES: Cc1cc(=O)oc2cc(NC(=O)[C@H](CCC(N)=O)NC(=O)[C@H](CC(C)C)NC(=O)[C@H](CCCCN)NC(=O)[C@H](CO)NC(=O)N3CCOCC3)ccc12 [SKLQ, Ser-Lys-Leu-Gln] ({Morpholide-CO}-SKLQ-{AMC})
- picomoles of peptide cleaved/min/200 picomoles protease: PSA ([1]; 0.2 mM substrate): 29.6 picomoles/min/200 picomoles pr
- Kcat [1]: 0.020 s⁻¹
- Km [1]: 813 µM
- picomoles of peptide cleaved/min/200 picomoles protease: Esterase (porcine liver esterase): UD (at most, 0.1 pmole of substrate cleavage per minute per 200 pmole protease took place)
- picomoles of peptide cleaved/min/200 picomoles protease: Cath B (Cathepsin B): 31.2 picomoles/min/200 picomoles pr
- picomoles of peptide cleaved/min/200 picomoles protease: Cath D (Cathepsin D): 6.4 picomoles/min/200 picomoles pr
- picomoles of peptide cleaved/min/200 picomoles protease: Cath C (Cathepsin C): UD (at most, 0.1 pmole of substrate cleavage per minute per 200 pmole protease took place)
